Assay results reported in ChEMBL document CHEMBL4765492, “Discovery of GLPG2451, a Novel Once Daily Potentiator for the Treatment of Cystic Fibrosis” (J Med Chem, 2021).
Converted amounts (≈) assume the structure as drawn.

Key:
[1] = Permeability efflux ratio in MDCK cells; format: ADME, cell-based, Canis lupus familiaris; details: dog
[2] = target: Cystic fibrosis transmembrane conductance regulator (Homo sapiens, UniProt P13569, F508DEL); assay: Potentiation of CFTR F508del mutant (unknown origin) expressed in human CFBE41o- cells co-expressing YFP incubated for 10 mins by halide potentiator assay; format: cell-based
Sequence of Cystic fibrosis transmembrane conductance regulator (P13569 as listed by the source): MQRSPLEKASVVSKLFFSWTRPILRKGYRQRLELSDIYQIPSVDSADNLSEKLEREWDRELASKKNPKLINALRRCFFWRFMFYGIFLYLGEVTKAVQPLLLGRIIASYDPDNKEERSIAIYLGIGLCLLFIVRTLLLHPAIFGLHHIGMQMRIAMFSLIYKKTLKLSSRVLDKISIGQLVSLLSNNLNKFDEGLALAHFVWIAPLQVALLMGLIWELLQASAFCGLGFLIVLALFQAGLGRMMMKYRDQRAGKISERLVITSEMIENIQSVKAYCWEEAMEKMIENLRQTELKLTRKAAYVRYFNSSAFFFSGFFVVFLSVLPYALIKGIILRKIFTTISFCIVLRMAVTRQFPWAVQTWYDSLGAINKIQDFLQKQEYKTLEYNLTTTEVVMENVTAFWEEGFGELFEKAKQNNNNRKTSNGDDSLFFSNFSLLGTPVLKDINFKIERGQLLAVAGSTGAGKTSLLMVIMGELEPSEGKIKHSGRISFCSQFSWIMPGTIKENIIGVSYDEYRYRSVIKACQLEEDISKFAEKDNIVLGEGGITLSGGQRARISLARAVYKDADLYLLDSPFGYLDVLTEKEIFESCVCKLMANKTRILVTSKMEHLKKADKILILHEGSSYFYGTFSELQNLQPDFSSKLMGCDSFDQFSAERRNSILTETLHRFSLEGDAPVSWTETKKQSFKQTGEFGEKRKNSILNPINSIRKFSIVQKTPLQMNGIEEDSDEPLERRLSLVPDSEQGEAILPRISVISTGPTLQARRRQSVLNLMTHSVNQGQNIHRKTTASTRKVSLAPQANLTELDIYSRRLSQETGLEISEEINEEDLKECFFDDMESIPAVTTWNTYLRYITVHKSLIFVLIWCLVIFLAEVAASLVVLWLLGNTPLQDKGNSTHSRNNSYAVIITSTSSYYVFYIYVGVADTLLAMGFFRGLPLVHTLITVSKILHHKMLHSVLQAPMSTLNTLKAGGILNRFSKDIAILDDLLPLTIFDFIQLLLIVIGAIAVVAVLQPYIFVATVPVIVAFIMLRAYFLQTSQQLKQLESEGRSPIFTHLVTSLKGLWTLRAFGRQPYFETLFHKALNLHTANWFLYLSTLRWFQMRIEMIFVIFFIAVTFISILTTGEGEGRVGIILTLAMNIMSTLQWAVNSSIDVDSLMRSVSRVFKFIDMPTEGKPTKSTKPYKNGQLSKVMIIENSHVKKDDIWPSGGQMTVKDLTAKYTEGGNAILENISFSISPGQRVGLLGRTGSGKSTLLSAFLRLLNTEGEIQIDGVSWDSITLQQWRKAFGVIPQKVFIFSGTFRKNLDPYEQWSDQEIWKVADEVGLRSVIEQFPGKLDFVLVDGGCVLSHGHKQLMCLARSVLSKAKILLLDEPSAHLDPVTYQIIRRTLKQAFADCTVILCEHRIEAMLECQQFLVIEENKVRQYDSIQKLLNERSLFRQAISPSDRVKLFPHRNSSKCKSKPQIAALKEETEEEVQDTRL

[3] = Unbound intrinsic clearance in rat liver microsomes; format: ADME, Microsome
[4] = Unbound intrinsic clearance in rat hepatocytes; format: ADME, cell-based, Hepatocyte
[5] = AUC in rat at 5 mg/kg, po; format: ADME, organism-based; design: dose 5 mg/kg; details: in vivo
[6] = Permeability of compound across apical to basolateral membrane in MDCK cells; format: ADME, cell-based, Canis lupus familiaris; details: dog, read-out: permeability
[7] = Kinetic aqueous solubility of the compound at pH 7.4; format: physicochemical; details: buffer, read-out: Kinetic_solubility
[8] = Clearance in Sprague-Dawley rat at 1 mg/kg, iv; format: ADME, organism-based; details: in vivo
[9] = target: T1, Nuclear receptor subfamily 1 group I member 2 (Homo sapiens, UniProt O75469); assay: Activation of PXR (unknown origin) at 10 uM by CYP450 induction assay relative to rifampicin; format: ADME
T1 sequence (O75469 whole entry): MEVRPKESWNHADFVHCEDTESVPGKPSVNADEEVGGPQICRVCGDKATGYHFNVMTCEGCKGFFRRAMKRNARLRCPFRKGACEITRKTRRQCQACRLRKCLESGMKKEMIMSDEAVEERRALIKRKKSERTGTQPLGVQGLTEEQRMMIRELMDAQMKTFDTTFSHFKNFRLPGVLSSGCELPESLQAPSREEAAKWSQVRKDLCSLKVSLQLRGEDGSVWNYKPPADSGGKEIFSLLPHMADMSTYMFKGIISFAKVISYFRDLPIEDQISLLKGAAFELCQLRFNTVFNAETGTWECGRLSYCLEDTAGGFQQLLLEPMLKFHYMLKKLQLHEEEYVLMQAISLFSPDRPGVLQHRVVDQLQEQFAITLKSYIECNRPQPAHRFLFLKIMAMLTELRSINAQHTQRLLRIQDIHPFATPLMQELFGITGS

[10] = Inhibition of CYP450 (unknown origin); format: ADME; details: human
[11] = Unbound intrinsic clearance in human liver microsomes; format: ADME, Microsome
[12] = Half life in Sprague-Dawley rat at 1 mg/kg, iv; format: ADME, organism-based; details: in vivo
[13] = Volume of distribution at steady state in Sprague-Dawley rat at 1 mg/kg, iv; format: ADME, organism-based; details: in vivo, read-out: Vdss
[14] = Unbound clearance in Sprague-Dawley rat at 1 mg/kg, iv; format: ADME, organism-based; details: in vivo
[15] = tested on: Cystic fibrosis transmembrane conductance regulator (Homo sapiens), P13569 [G551D]; assay: Potentiation of CFTR G551D mutant (unknown origin) expressed in human HEK293 cells co-expressing YFP incubated for 10 mins by halide potentiator assay relative to control; format: cell-based; details: filed as activator
Sequence of Cystic fibrosis transmembrane conductance regulator (Homo sapiens), P13569 [G551D] (P13569 whole entry G551D): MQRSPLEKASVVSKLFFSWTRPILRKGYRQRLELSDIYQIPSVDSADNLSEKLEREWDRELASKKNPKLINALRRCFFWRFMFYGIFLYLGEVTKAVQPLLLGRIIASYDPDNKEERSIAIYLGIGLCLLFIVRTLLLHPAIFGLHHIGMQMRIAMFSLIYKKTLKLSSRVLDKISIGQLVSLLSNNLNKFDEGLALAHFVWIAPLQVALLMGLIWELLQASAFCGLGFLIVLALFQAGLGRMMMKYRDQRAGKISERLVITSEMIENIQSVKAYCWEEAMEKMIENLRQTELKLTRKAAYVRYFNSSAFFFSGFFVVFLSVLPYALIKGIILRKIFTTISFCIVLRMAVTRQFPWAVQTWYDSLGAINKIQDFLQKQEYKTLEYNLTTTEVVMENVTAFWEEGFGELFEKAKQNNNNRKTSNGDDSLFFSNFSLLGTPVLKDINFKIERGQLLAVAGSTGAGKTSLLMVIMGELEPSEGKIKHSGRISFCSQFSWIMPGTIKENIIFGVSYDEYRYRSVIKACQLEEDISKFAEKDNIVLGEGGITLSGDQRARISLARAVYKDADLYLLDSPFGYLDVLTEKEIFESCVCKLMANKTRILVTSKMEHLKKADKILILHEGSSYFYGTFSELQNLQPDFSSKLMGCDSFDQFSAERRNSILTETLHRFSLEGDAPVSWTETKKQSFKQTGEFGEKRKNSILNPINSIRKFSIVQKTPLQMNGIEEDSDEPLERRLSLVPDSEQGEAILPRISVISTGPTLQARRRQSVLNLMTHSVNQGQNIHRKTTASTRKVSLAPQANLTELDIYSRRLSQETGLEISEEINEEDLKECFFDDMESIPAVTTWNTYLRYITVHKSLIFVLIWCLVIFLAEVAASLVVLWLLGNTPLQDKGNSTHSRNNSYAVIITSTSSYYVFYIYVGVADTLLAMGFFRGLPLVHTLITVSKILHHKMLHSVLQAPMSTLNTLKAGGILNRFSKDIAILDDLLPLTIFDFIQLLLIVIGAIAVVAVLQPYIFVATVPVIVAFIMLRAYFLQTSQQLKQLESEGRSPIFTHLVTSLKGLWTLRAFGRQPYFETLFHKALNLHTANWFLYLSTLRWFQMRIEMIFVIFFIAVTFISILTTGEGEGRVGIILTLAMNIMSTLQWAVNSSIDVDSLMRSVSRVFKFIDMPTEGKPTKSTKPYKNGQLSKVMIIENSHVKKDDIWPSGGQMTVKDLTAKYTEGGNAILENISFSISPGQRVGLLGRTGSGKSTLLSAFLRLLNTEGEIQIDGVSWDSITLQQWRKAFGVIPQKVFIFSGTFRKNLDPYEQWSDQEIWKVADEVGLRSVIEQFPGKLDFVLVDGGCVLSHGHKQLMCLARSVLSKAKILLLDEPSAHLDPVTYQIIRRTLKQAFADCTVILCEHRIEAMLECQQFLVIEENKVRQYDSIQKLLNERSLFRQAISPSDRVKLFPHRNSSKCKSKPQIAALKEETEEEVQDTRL

| Structure (SMILES) | efflux ratio [1] | EC50 [2] [µM] | CL free [3] [mL/min/kg] | Papp A→B [6] [×10⁻⁶ cm/s] | other results |
| --- | --- | --- | --- | --- | --- |
| NC(=O)c1cc(S(=O)(=O)c2ccc(F)cc2)sc1NC(=O)C1(O)CC1 | 137 | 0.079 | 76.7 | 1 | CL free [4]: 107 mL/min/kg; AUC [5]: 500 ng·h/mL |
| NC(=O)c1cc(S(=O)(=O)N2CCCCC2)sc1NC(=O)c1ccn[nH]1 | 40 | 0.013 | 250 | 0.5 | – |
| Nc1cc(S(=O)(=O)c2ccc(C(F)(F)F)cc2)cnc1C(=O)N1CCC[C@H]1CO | – | > 2 | – | – | – |
| Nc1cc(S(=O)(=O)c2ccc(F)cc2)cnc1C(=O)N1CC(O)(C(F)(F)F)C1 | – | 0.0011 | 28.3 | – | – |
| CC(C)(C)C(=O)Nc1sc(S(=O)(=O)c2ccc(F)cc2)cc1C(N)=O | – | 0.352 | 105 | – | – |
| Nc1cc(S(=O)(=O)c2ccccc2OC(F)(F)F)cnc1C(=O)NC[C@@H](O)C(F)(F)F | – | < 0.00031 | 120 | – | solubility kinetic [7]: 75 µM (≈ 35.5 µg/mL); clearance [8]: 9.83 mL/min/kg; Activity [9]: 80%; inhibition (INH) [10]: Not Active; CL free [11]: 45 mL/min/kg; half-life [12]: 6.7 h; Vd [13]: 5.1 L/kg; CL free [14]: 258 mL/min/kg |
| Nc1cc(S(=O)(=O)c2ccc(OC(F)(F)F)cc2)cnc1C(=O)NC[C@@H](O)C(F)(F)F | – | 0.0034 | 58.3 | – | solubility kinetic [7]: < 19 µM; clearance [8]: 1.33 mL/min/kg; Activity [9]: 10%; inhibition (INH) [10]: Not Active; CL free [11]: 36.7 mL/min/kg; half-life [12]: > 50 h; Vd [13]: 6 L/kg; CL free [14]: 86.7 mL/min/kg |
| CC(C)(C)c1cc(C(C)(C)C)c(NC(=O)c2c[nH]c3ccccc3c2=O)cc1O | – | – | – | – | Activity [15]: 53% |
| CC(C)(O)C(=O)Nc1sc(S(=O)(=O)c2ccc(F)cc2)cc1C(N)=O | 5 | 0.026 | 30 | 4 | CL free [4]: 46.7 mL/min/kg; AUC [5]: 5600 ng·h/mL |
